Test results reported in patent US20050037989A1, “Inhibition of gene function by delivery of polynucleotide-based gene expression inhibitors to mammalian cells in vivo” (priority 2001, published 2005).
d = 2'-deoxy (DNA); r = 2'-OH (RNA)

Key:
[1] = test system: mouse HMG CoA reductase mRNA; assay: Serum triglyceride levels after tail vein injection of siRNA against HMG CoA reductase; type: in vivo, Apoetm1Unc mice; conditions: for Triglyceride levels: absorbance at 520 nm
Method: Group A (series2) mice (5 mice) were each injected with 50 μg of an siRNA directed against mouse HMG CoA reductase mRNA. Group B (Series 1) mice (5 mice) were an uninjected control group. Group A and Group B animals were bled 7 days before, 2 days after, 4 days after, and 7 days after the injection. Serum samples were stored at −20° C. until all timepoints had been collected. Each group's serum samples from a given time-point were pooled prior to the triglyceride assays. Triglyceride assays were performed in quintuplicate.
A total of 50 μg of siRNA-HMGCR was dissolved in 2.2 ml Ringer's solution (147 mM NaCl, 4 mM KCl, 1.13 mM CaCl2), and injected into the tail vein of ApoE (−/−) mice over 7-12 seconds. Control mice were not injected and are referred to here as naive. Each mouse was bled from the retro-orbital sinus at various times prior to and after injection. Cells and clotting factors were pelleted from the blood to obtain serum. The serum triglyceride levels were then assayed by a enzymatic, colorimetric assay using the Infinity Triglyceride Reagent (Sigma Co.).
Triglyceride assays. Serum samples were diluted 1:100 in the Infinity Triglyceride Reagent (2 μl in 200 μl) in a clear, 96-well plate. Each assay plate was then incubated at 37° C. for five minutes, removed and allowed to cool to room temperature. Absorbance was measured at 520 nm using a SpectraMax Plus plate reader (Molecular Devices, Inc). Background absorbance (no serum added) was subtracted from each reading and the resulted data was plotted versus timepoint.

[2] = test system: HMGCR mRNA in primary hepatocytes; assay: HMGCR mRNA in primary hepatocytes cultured with anti-HMGCR siRNA and/or atorvastatin (qPCR); type: cell-based, C57B6 mice; conditions: siRNA alone, 24 hours
Method: qPCR assays. Quantitative, real-time PCR was performed using the Bio-Rad icycler system and iCycler reagents as recommended by the manufacturer. The primers used to amplify HMGCR sequences were SEQ ID 17 and SEQ ID 31.
Total RNA from these cells was isolated and transcribed into cDNA using an oligo-dT primer and reverse transcriptase. Subsequently, HMGCR levels were assayed using quantitative, real-time PCR.

## siRNA-HMGCR: annealed oligomers SEQ ID 25 and SEQ ID 26, positions 2324-2344 of murine HMG CoA reductase reading frame (Examples 16, 18) (chain 1 ACAUUGUCACUGCUAUCUATT; chain 2 UAGAUAGCAGUGACAAUGUTT; sugars from the 5' end r19 d2, backbone not given here; listed as Mus musculus)
[1]; 50 μg siRNA tail vein, after 7 days
  triglyceride levels (in words): returned to normal levels
[1]; 50 μg siRNA tail vein, after two days
  triglyceride levels reduced: 62%
[1]; 50 μg siRNA tail vein, second value, printed again as after two days
  triglyceride levels reduced: 56%
[1]; day +2, pooled serum
  Triglyceride levels: 0.082 ± 0.006
[1]; day +4, pooled serum
  Triglyceride levels: 0.095 ± 0.005
[1]; day +7, pooled serum
  Triglyceride levels: 0.189 ± 0.012
[1]; day −7 (before injection), pooled serum
  Triglyceride levels: 0.218 ± 0.008
[2]
  HMGCR mRNA, % of that seen in control cells: approximately 20%
